Results as given in ChEMBL document CHEMBL2440076, “New triarylpyrazoles as broad-spectrum anticancer agents: design, synthesis, and biological evaluation” (Eur J Med Chem, 2013).

Legend:
[1] = system: LOX IMVI; experiment: Growth inhibition of human LOXIMVI cells assessed as cell growth at 10 uM after 48 hrs by sulforhodamine B assay; type: functional; settings: read-out: Activity
[2] = system: OVCAR-5; experiment: Growth inhibition of human OVCAR5 cells assessed as cell growth at 10 uM after 48 hrs by sulforhodamine B assay; type: functional; settings: OVCAR-5, 48 h, read-out: Activity
[3] = system: A549; experiment: Growth inhibition of human A549/ATCC cells assessed as cell growth at 10 uM after 48 hrs by sulforhodamine B assay; type: functional; settings: A549, 48 h, read-out: Activity
[4] = system: OVCAR-8; experiment: Growth inhibition of human OVCAR8 cells assessed as cell growth at 10 uM after 48 hrs by sulforhodamine B assay; type: functional; settings: OVCAR-8, 48 h, read-out: Activity
[5] = system: NCI-H322M; experiment: Growth inhibition of human NCI-H322M cells assessed as cell growth at 10 uM after 48 hrs by sulforhodamine B assay; type: functional; settings: read-out: Activity
[6] = system: Malme-3M; experiment: Growth inhibition of human MALME-3M cells assessed as cell growth at 10 uM after 48 hrs by sulforhodamine B assay; type: functional; settings: read-out: Activity
[7] = system: SK-MEL-5; experiment: Growth inhibition of human SK-MEL-5 cells assessed as cell growth at 10 uM after 48 hrs by sulforhodamine B assay; type: functional; settings: SK-MEL-5, 48 h, read-out: Activity
[8] = system: HCT-15; experiment: Growth inhibition of human HCT15 cells assessed as cell growth at 10 uM after 48 hrs by sulforhodamine B assay; type: functional; settings: HCT-15, 48 h, read-out: Activity
[9] = system: RXF 393; experiment: Growth inhibition of human RXF393 cells assessed as cell growth at 10 uM after 48 hrs by sulforhodamine B assay; type: functional; settings: RXF 393, 48 h, read-out: Activity
[10] = system: CCRF-CEM; experiment: Growth inhibition of human CCRF-CEM cells assessed as cell growth at 10 uM after 48 hrs by sulforhodamine B assay; type: functional; settings: read-out: Activity
[11] = system: U-251; experiment: Growth inhibition of human U251 cells assessed as cell growth at 10 uM after 48 hrs by sulforhodamine B assay; type: functional; settings: U-251, 48 h, read-out: Activity
[12] = system: PC-3; experiment: Growth inhibition of human PC3 cells assessed as cell growth at 10 uM after 48 hrs by sulforhodamine B assay; type: functional; settings: PC-3, 48 h, read-out: Activity
[13] = system: CAKI-1; experiment: Growth inhibition of human CAKI-1 cells assessed as cell growth at 10 uM after 48 hrs by sulforhodamine B assay; type: functional; settings: CAKI-1, 48 h, read-out: Activity
[14] = Growth inhibition of human HCC2998 cells assessed as cell growth at 10 uM after 48 hrs by sulforhodamine B assay; type: functional; settings: HCC 2998, 48 h, read-out: Activity
[15] = system: SK-MEL-2; experiment: Growth inhibition of human SK-MEL-2 cells assessed as cell growth at 10 uM after 48 hrs by sulforhodamine B assay; type: functional; settings: SK-MEL-2, 48 h, read-out: Activity
[16] = system: T47D; experiment: Growth inhibition of human T47D cells assessed as cell growth at 10 uM after 48 hrs by sulforhodamine B assay; type: functional; settings: read-out: Activity
[17] = system: 786-0; experiment: Growth inhibition of human 786-0 cells assessed as cell growth at 10 uM after 48 hrs by sulforhodamine B assay; type: functional; settings: 786-0, 48 h, read-out: Activity
[18] = system: RPMI-8226; experiment: Growth inhibition of human RPMI8226 cells assessed as cell growth at 10 uM after 48 hrs by sulforhodamine B assay; type: functional; settings: RPMI-8226, 48 h, read-out: Activity
[19] = system: A498; experiment: Growth inhibition of human A498 cells assessed as cell growth at 10 uM after 48 hrs by sulforhodamine B assay; type: functional; settings: A498, 48 h, read-out: Activity
[20] = system: HOP-62; experiment: Growth inhibition of human HOP62 cells assessed as cell growth at 10 uM after 48 hrs by sulforhodamine B assay; type: functional; settings: HOP-62, 48 h, read-out: Activity
[21] = system: OVCAR-5; experiment: Growth inhibition of human OVCAR5 cells after 48 hrs by sulforhodamine B assay; type: functional; settings: OVCAR-5, 48 h
[22] = system: SK-MEL-5; experiment: Growth inhibition of human SK-MEL-5 cells after 48 hrs by sulforhodamine B assay; type: functional; settings: SK-MEL-5, 48 h
[23] = system: CCRF-CEM; experiment: Growth inhibition of human CCRF-CEM cells after 48 hrs by sulforhodamine B assay; type: functional
[24] = system: MDA-MB-435; experiment: Growth inhibition of human MDA-MB-435 cells after 48 hrs by sulforhodamine B assay; type: functional, cell-based; settings: MDA-MB-435, 48 h
[25] = system: BT-549; experiment: Growth inhibition of human BT549 cells after 48 hrs by sulforhodamine B assay; type: functional; settings: BT-549, 48 h
[26] = system: NCI-H226; experiment: Growth inhibition of human NCI-H226 cells after 48 hrs by sulforhodamine B assay; type: functional; settings: NCI-H226, 48 h
[27] = system: SF-539; experiment: Growth inhibition of human SF539 cells after 48 hrs by sulforhodamine B assay; type: functional; settings: SF-539, 48 h
[28] = system: UACC-257; experiment: Growth inhibition of human UACC257 cells after 48 hrs by sulforhodamine B assay; type: functional; settings: UACC-257, 48 h
[29] = system: RXF 393; experiment: Growth inhibition of human RXF393 cells after 48 hrs by sulforhodamine B assay; type: functional; settings: RXF 393, 48 h
[30] = system: NCI-H23; experiment: Growth inhibition of human NCI-H23 cells after 48 hrs by sulforhodamine B assay; type: functional; settings: NCI-H23, 48 h
[31] = system: KM12; experiment: Growth inhibition of human KM12 cells after 48 hrs by sulforhodamine B assay; type: functional, cell-based; settings: KM12, 48 h
[32] = system: MCF7; experiment: Growth inhibition of human MCF7 cells after 48 hrs by sulforhodamine B assay; type: functional; settings: MCF7, 48 h
[33] = system: HT-29; experiment: Growth inhibition of human HT-29 cells after 48 hrs by sulforhodamine B assay; type: functional; settings: HT-29, 48 h
[34] = system: COLO 205; experiment: Growth inhibition of human COLO205 cells after 48 hrs by sulforhodamine B assay; type: functional; settings: COLO 205, 48 h
[35] = system: DU-145; experiment: Growth inhibition of human DU145 cells after 48 hrs by sulforhodamine B assay; type: functional; settings: DU-145, 48 h
[36] = read-out: LC50 (the source's name)

COc1cc(-c2nn(-c3cccc(NC(=O)Nc4ccccc4)c3)cc2-c2ccncc2)ccc1Cl
growth at 10 µM [1]: 85.4%
growth at 10 µM [2]: 91.3%
growth at 10 µM [3]: 79.3%
growth at 10 µM [4]: 77.9%
growth at 10 µM [5]: 95.5%
growth at 10 µM [6]: 57.7%
growth at 10 µM [7]: 79.9%
growth at 10 µM [8]: 84.5%
growth at 10 µM [9]: 72.8%
growth at 10 µM [10]: 83.3%
growth at 10 µM [11]: 85%
growth at 10 µM [12]: 52.5%
growth at 10 µM [13]: 96.1%
growth at 10 µM [14]: 119%
growth at 10 µM [15]: 77%
growth at 10 µM [16]: 75.6%
growth at 10 µM [17]: 93.1%
growth at 10 µM [18]: 68%
growth at 10 µM [19]: 79.7%
growth at 10 µM [20]: 87.2%

O=C(Nc1cccc(-n2cc(-c3ccncc3)c(-c3ccc(Cl)c(O)c3)n2)c1)c1ccccc1
growth at 10 µM [1]: 68.5%
growth at 10 µM [2]: 115%
growth at 10 µM [3]: 52.6%
growth at 10 µM [4]: 50.9%
growth at 10 µM [5]: 89.2%
growth at 10 µM [6]: 53.1%
growth at 10 µM [7]: 59.4%
growth at 10 µM [8]: 58.2%
growth at 10 µM [9]: 0.59%
growth at 10 µM [10]: 67.5%
growth at 10 µM [11]: 75.4%
growth at 10 µM [12]: 50.3%
growth at 10 µM [13]: 90.3%
growth at 10 µM [14]: 76.8%
growth at 10 µM [15]: 67.9%
growth at 10 µM [16]: 73.9%
growth at 10 µM [17]: 76.1%
growth at 10 µM [18]: 60.5%
growth at 10 µM [19]: 72.3%
growth at 10 µM [20]: 46.7%

O=C(Nc1cccc(-n2cc(-c3ccncc3)c(-c3ccc(Cl)c(O)c3)n2)c1)Nc1ccc(Cl)c(C(F)(F)F)c1
GI50 [21]: 1570 nM
LC50 (concentration killing 50% of cells) [21]: > 32500 nM
TGI [21]: 16200 nM
growth at 10 µM [1]: -75.8%
growth at 10 µM [2]: 23.3%
GI50 [22]: 550 nM
LC50 (concentration killing 50% of cells) [22]: 2130 nM
TGI [22]: 1080 nM
GI50 [23]: 719 nM
LC50 [23]: > 32500 nM
TGI [23]: 2700 nM
growth at 10 µM [3]: -21.3%
growth at 10 µM [4]: -41.8%
growth at 10 µM [5]: 24.7%
GI50 [24]: 660 nM
IC50 [24]: 660 nM
TGI [24]: 1770 nM
CC50 [24, 36]: 21500 nM
growth at 10 µM [6]: -16.6%
GI50 [25]: 1250 nM
LC50 (50% lethal concentration) [25]: > 32500 nM
TGI [25]: 8070 nM
growth at 10 µM [7]: -100%
GI50 [26]: 1350 nM
TGI [26]: > 32500 nM
CC50 [26, 36]: > 32500 nM
growth at 10 µM [8]: 1.04%
GI50 [27]: 782 nM
LC50 (concentration killing 50% of cells) [27]: > 32500 nM
TGI [27]: 2390 nM
GI50 [28]: 768 nM
TGI [28]: 2100 nM
CC50 [28, 36]: 8390 nM
growth at 10 µM [9]: -76%
growth at 10 µM [10]: -13.8%
GI50 [29]: 508 nM
LC50 (concentration killing 50% of cells) [29]: > 32500 nM
TGI [29]: 1670 nM
GI50 [30]: 951 nM
LC50 [30]: 26100 nM
TGI [30]: 3330 nM
GI50 [31]: 1000 nM
TGI [31]: 3510 nM
CC50 [31, 36]: 17400 nM
GI50 [32]: 663 nM
LC50 [32]: > 32500 nM
TGI [32]: > 32500 nM
growth at 10 µM [11]: -70.4%
GI50 [33]: 1280 nM
TGI [33]: 5730 nM
CC50 [33, 36]: 22600 nM
growth at 10 µM [12]: -10.4%
growth at 10 µM [13]: 17.3%
GI50 [34]: 2390 nM
LC50 (concentration killing 50% of cells) [34]: 16100 nM
TGI [34]: 6750 nM
growth at 10 µM [15]: -60.4%
GI50 [35]: 1130 nM
LC50 [35]: 25100 nM
TGI [35]: 4630 nM
growth at 10 µM [16]: -7.12%
growth at 10 µM [17]: 4.7%
growth at 10 µM [18]: -10.5%
growth at 10 µM [19]: 11.2%
growth at 10 µM [20]: -17%
